# Measured values reported in US8415469B2, “Compounds and methods for kinase modulation, and indications therefor” (Plexxikon Inc., priority 2005, dated 2013).
# Experiments:
# Type in all cases: biochemical
# Jnk1 = target: T1, Jnk1 (Homo sapiens, UniProt P45983); experiment: AlphaScreen kinase assay, Jnk1; conditions: read-out: IC50, activity toward kinase Jnk1
# T1 construct: purchased Upstate Biotechnology
# FGFR1 = target: T2, FGFR1 (Homo sapiens, UniProt P11362, C488A/C584S); experiment: AlphaScreen kinase assay, FGFR1; conditions: read-out: IC50, activity toward kinase FGFR
# T2 construct: P1351.pET N6 BI-PTP FGFR A458-E765-X C488A, C584S; made in house; host or cells: E. coli (PTP1B co-expressed)
# Kdr = target: T3, Kdr (Homo sapiens, UniProt P35968); experiment: Z'-Lyte FRET kinase assay (Invitrogen), Kdr; conditions: read-out: IC50, activity toward kinase Kdr
# T3 construct: purchased Invitrogen (assay run by Invitrogen)
# Ret = target: T4, Ret (Homo sapiens, UniProt P07949); experiment: AlphaScreen kinase assay, Ret; conditions: read-out: IC50, activity toward kinase Ret
# T4 construct: P1378.pET-SF BI-PTP RET H661-R1012 HIS; made in house
# T4 sequence (P07949 with tags, fused parts or gaps): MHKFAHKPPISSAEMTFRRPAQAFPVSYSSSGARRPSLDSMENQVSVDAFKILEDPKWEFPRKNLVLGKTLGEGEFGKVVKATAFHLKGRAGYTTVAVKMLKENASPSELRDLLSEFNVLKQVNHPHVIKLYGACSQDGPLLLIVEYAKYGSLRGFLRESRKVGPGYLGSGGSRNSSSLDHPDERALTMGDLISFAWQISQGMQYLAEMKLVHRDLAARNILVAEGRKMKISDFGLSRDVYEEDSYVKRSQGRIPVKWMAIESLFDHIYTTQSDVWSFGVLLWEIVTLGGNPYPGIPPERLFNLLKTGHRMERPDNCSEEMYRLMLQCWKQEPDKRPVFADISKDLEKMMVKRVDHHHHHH
# B-Raf V600E = target: T5, B-Raf V600E (Homo sapiens, UniProt P15056, V600E); experiment: AlphaScreen kinase assay, B-Raf V600E; conditions: read-out: IC50, activity toward kinase B-Raf V600E
# T5 construct: P4254. pFastBacBD-CDC37 BRAF D437-K722-X, V600E; His6 with pFastBac HT leader (TEV site) (N); made in house; host or cells: Sf9 (baculovirus; chaperone CDC37 co-expressed)
# Jnk3 = target: T6, Jnk3 (Homo sapiens, UniProt P53779); experiment: AlphaScreen kinase assay, Jnk3; conditions: read-out: IC50, activity toward kinase Jnk3
# T6 construct: purchased Upstate Biotechnology
# Jnk2 = target: T7, Jnk2 (Homo sapiens, UniProt P45984); experiment: AlphaScreen kinase assay, Jnk2; conditions: read-out: IC50, activity toward kinase Jnk2
# T7 construct: purchased Roche Protein Expression Group (Indianapolis, IN)
# Outline: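 Here, phosphorylation of a biotin-tagged peptide was sensed by proximity of streptavidin donor and antibody-bearing acceptor beads. Test compounds covered 8 concentrations by 1:3 serial dilution of 20 mM DMSO stocks.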
# Flt1 = target: T8, Flt1 (Homo sapiens, UniProt P17948); experiment: AlphaScreen kinase assay, Flt1; conditions: read-out: IC50, activity toward kinase Flt1
# T8 construct: P1826.pETN6 BI-PTP FLT1 M799-D1165-X WT; His6 (N); made in house; host or cells: E. coli (PTP1B co-expressed)
# T8 sequence (P17948 with tags, fused parts or gaps): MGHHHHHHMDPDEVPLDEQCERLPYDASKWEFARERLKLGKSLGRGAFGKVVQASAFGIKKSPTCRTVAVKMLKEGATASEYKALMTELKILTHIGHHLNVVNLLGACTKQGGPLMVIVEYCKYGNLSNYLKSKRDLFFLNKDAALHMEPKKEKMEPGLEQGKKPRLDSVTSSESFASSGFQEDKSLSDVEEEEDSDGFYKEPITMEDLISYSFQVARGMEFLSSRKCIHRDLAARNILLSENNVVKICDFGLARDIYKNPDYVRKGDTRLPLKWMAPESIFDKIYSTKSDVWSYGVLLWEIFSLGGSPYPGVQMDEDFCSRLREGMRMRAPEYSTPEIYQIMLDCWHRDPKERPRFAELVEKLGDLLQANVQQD
# B-Raf = target: T9, B-Raf (Homo sapiens, UniProt P15056); experiment: AlphaScreen kinase assay, B-Raf; conditions: read-out: IC50, activity toward kinase B-Raf
# T9 construct: purchased Upstate Biotechnology
# Kit = target: T10, Kit (Homo sapiens, UniProt P10721); experiment: AlphaScreen kinase assay, Kit; conditions: read-out: IC50, activity toward kinase Kit
# T10 construct: P1332.N6 BI PTP KIT M552-K948-X COD; His6 (N); made in house; host or cells: E. coli (PTP1B co-expressed)
# Src = target: T11, Src (Homo sapiens, UniProt P12931); experiment: AlphaScreen kinase assay, Src; conditions: read-out: IC50, activity toward kinase Src
# T11 construct: P1144. pET-N6 BI-PTP SRC V86-L536-X; made in house
# Fak = target: T12, Fak (Homo sapiens, UniProt Q05397); experiment: AlphaScreen kinase assay, Fak; conditions: read-out: IC50, activity toward kinase Fak
# T12 construct: P1358.pFastBacHtb FAK S411-Q686-X; His6 with pFastBacHTb leader (TEV site) (N); made in house; host or cells: Sf9 (baculovirus)
# Fms = target: T13, Fms (Homo sapiens, UniProt P07333); experiment: AlphaScreen kinase assay, Fms; conditions: read-out: IC50, activity toward kinase Fms
# T13 construct: purchased Upstate Biotechnology
# c-Raf-1 = target: T14, c-Raf-1 (Homo sapiens, UniProt P04049); experiment: AlphaScreen kinase assay, c-Raf-1; conditions: read-out: IC50, activity toward kinase c-Raf-1
# T14 construct: purchased Upstate Biotechnology
# T14 sequence (P04049 whole entry): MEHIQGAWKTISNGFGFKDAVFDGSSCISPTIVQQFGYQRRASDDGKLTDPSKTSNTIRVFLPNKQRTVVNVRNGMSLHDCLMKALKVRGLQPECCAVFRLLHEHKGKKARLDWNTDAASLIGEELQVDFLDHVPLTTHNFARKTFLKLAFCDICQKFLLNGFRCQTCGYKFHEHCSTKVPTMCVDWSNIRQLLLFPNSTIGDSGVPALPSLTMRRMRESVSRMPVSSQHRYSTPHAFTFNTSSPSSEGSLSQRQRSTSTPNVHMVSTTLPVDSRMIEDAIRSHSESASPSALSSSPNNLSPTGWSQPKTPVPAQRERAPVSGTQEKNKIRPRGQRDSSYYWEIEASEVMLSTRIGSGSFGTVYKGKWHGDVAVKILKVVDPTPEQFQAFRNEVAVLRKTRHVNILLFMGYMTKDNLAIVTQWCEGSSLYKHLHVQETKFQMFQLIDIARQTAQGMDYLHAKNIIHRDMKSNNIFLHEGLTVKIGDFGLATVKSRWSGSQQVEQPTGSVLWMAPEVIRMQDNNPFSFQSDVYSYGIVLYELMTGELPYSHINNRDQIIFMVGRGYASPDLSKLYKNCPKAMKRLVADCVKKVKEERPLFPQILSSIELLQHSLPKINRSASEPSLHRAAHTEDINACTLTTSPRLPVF
# T13 sequence (P07333 20-972): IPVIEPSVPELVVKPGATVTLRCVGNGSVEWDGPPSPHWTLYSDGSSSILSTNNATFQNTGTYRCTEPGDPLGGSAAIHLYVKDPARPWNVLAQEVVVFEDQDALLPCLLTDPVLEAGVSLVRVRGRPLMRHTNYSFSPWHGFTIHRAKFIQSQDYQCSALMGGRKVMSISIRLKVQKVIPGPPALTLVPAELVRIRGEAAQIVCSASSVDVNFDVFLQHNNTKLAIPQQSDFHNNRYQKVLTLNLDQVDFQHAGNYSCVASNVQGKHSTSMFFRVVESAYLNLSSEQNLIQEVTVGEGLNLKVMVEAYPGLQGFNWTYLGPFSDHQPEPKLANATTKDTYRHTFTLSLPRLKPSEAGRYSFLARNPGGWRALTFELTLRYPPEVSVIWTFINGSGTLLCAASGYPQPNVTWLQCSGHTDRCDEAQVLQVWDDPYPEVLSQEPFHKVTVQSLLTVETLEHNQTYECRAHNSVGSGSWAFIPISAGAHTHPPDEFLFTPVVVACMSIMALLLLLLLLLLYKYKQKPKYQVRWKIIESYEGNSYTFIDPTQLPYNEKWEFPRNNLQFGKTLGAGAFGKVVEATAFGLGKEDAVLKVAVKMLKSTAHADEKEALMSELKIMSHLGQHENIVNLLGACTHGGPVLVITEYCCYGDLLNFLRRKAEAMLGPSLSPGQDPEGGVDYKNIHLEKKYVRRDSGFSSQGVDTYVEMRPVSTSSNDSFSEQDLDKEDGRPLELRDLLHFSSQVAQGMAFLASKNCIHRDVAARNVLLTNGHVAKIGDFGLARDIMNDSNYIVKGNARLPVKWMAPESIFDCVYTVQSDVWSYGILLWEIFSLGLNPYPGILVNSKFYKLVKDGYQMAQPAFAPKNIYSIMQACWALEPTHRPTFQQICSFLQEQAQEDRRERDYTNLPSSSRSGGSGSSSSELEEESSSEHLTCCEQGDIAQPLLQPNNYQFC
# T9 sequence (P15056 whole entry): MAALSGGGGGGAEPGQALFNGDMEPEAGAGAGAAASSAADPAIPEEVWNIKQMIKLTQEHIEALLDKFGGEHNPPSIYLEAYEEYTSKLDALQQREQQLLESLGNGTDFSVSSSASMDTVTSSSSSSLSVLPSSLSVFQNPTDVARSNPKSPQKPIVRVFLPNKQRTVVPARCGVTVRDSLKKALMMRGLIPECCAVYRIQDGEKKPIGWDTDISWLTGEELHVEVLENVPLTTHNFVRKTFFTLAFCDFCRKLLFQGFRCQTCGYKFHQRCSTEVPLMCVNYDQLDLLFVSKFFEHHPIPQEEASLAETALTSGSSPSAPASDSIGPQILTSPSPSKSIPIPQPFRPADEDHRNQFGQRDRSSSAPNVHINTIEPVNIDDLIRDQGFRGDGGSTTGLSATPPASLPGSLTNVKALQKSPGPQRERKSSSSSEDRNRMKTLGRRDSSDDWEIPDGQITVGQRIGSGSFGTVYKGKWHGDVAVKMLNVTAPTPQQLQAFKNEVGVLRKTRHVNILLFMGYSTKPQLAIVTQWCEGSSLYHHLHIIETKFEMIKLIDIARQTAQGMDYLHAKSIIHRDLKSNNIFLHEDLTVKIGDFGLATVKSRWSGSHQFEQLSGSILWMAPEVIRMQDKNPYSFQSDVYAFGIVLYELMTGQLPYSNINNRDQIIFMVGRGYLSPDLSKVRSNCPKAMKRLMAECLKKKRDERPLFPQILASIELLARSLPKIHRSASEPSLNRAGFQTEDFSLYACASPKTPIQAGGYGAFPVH
# T6 sequence (P53779 whole entry): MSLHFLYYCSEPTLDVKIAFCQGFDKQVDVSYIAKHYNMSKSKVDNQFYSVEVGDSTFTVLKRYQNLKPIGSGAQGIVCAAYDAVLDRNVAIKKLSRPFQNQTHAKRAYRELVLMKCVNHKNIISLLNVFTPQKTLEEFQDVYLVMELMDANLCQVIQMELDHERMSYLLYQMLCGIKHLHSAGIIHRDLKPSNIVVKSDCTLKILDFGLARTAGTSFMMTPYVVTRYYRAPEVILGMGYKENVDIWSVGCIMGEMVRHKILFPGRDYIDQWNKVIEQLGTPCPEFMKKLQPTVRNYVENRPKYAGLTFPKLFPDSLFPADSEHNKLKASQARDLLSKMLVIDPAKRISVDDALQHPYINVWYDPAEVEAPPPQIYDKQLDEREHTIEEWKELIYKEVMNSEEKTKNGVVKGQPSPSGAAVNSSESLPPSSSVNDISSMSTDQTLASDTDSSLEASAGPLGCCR
# T2 sequence (P11362 458-765 C488A/C584S): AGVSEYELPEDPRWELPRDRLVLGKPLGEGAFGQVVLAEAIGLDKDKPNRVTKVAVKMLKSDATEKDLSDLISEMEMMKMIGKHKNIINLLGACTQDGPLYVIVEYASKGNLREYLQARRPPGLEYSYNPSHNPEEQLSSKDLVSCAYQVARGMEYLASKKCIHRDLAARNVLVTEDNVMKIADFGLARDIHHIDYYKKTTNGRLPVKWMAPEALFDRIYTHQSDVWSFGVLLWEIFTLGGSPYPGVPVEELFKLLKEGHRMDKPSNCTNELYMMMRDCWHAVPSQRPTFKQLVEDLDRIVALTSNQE
# T7 sequence (P45984 whole entry): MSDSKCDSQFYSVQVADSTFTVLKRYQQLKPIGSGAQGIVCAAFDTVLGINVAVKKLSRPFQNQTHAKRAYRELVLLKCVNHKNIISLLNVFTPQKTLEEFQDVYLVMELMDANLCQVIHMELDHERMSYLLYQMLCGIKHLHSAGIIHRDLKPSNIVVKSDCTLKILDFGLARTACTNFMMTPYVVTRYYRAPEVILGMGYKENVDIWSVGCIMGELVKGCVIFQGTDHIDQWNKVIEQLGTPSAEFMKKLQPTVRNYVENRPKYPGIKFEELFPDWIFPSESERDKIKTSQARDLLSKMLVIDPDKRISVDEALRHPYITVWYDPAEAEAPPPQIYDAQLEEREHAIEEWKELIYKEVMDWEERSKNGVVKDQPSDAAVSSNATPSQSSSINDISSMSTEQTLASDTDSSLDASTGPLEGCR
# T1 sequence (P45983 whole entry): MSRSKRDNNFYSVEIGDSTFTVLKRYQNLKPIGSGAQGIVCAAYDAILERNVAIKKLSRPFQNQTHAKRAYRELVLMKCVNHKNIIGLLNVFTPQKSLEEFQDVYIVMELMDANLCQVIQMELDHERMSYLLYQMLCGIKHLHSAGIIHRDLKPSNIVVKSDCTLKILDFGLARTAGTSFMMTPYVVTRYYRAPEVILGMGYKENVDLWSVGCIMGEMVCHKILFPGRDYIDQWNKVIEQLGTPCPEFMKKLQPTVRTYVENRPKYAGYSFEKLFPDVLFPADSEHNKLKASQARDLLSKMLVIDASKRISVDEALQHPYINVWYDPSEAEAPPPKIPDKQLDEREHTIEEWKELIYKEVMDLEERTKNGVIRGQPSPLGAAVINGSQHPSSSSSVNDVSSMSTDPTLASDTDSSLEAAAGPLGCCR
# T5 sequence (P15056 with tags, fused parts or gaps V600E): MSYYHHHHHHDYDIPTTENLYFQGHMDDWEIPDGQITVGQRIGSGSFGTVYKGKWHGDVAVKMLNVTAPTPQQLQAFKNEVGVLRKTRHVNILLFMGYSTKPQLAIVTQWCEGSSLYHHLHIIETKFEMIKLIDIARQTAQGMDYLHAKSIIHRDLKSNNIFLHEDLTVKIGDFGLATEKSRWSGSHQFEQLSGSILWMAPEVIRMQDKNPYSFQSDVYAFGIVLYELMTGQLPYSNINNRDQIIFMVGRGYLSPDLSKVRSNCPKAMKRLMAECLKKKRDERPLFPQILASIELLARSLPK
# T10 sequence (P10721 with tags, fused parts or gaps): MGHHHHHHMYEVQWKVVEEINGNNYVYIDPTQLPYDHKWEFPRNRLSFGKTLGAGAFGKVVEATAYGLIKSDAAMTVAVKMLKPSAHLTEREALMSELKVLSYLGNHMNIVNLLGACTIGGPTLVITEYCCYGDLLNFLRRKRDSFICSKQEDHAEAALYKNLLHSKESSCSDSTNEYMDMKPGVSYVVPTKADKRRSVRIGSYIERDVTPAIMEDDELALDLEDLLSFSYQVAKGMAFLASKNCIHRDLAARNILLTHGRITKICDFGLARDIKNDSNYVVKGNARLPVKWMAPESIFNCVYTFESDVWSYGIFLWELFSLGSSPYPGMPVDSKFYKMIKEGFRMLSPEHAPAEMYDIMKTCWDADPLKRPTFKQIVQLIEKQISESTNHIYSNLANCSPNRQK
# T12 sequence (Q05397 411-686): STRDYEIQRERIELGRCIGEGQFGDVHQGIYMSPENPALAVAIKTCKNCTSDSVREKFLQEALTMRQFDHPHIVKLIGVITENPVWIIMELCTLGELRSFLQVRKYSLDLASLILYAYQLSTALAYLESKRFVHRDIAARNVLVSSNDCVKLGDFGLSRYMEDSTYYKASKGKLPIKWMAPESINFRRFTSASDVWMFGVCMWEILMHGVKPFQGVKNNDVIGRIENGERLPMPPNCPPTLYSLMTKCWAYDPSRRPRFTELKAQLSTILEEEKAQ
IC50 (Jnk1) [µM],IC50 (FGFR1) [µM],IC50 (Kdr) [µM],IC50 (Ret) [µM],IC50 (B-Raf V600E) [µM],IC50 (Jnk3) [µM],IC50 (Jnk2) [µM],IC50 (Flt1) [µM],IC50 (B-Raf) [µM],IC50 (Kit) [µM],IC50 (Src) [µM],IC50 (Fak) [µM],IC50 (Fms) [µM],IC50 (c-Raf-1) [µM],SMILES
≤ 10,≤ 10,≤ 10,≤ 10,≤ 10,≤ 10,≤ 10,,,,,,,,"CS(=O)(=O)Nc1ccc(F)c(C(=O)c2c[nH]c3ncc(-c4ccccc4)cc23)c1 [Compound P-0308, N-[4-Fluoro-3-(5-phenyl-1H-pyrrolo[2,3-b]pyridine-3-carbonyl)-phenyl]-methanesulfonamide]"
≤ 10,≤ 10,,,≤ 10,≤ 10,≤ 10,≤ 10,≤ 10,≤ 10,≤ 10,≤ 10,≤ 10,,"CCCCNC(=O)Nc1cccc(C(=O)c2c[nH]c3ncc(-c4cccnc4)cc23)c1 [Compound P-1445, 1-Butyl-3-[3-(5-pyridin-3-yl-1H-pyrrolo[2,3-b]pyridine-3-carbonyl)-phenyl]-urea]"
≤ 10,≤ 10,,,≤ 10,≤ 10,≤ 10,≤ 10,≤ 10,≤ 10,≤ 10,≤ 10,≤ 10,,"CCCCNC(=O)Nc1cccc(Cc2c[nH]c3ncc(-c4cccnc4)cc23)c1 [Compound P-1447, 1-butyl-3-[3-(5-pyridin-3-yl-1H-pyrrolo[2,3-b]pyridin-3-ylmethyl)-phenyl]-urea]"
≤ 10,≤ 10,,,≤ 10,≤ 10,≤ 10,≤ 10,≤ 10,≤ 10,,,≤ 10,≤ 10,"CCCS(=O)(=O)Nc1ccc(F)c(C(=O)c2c[nH]c3ncc(-c4ccc(C(=O)N(C)C)cc4)cc23)c1F [Compound P-1547, 4-{3-[2,6-Difluoro-3-(propane-1-sulfonylamino)-benzoyl]-1H-pyrrolo[2,3-b]pyridin-5-yl}-N,N-dimethyl-benzamide]"
≤ 10,≤ 10,,,≤ 10,≤ 10,≤ 10,≤ 10,≤ 10,≤ 10,,,≤ 10,,"CCCS(=O)(=O)Nc1ccc(F)c(C(=O)c2c[nH]c3ncc(-c4ccc(C(=O)N5CCOCC5)cc4)cc23)c1F [Compound P-1548, Propane-1-sulfonic acid (2,4-difluoro-3-{5-[4-(morpholine-4-carbonyl)-phenyl]-1H-pyrrolo[2,3]-pyridine-3-carbonyl}-phenyl)-amide]"
≤ 10,≤ 10,,,≤ 10,≤ 10,≤ 10,≤ 10,≤ 10,≤ 10,,,≤ 10,,"O=C(NCc1ccccc1)Nc1cccc(C(=O)c2c[nH]c3ncc(-c4cccnc4)cc23)c1 [Compound P-1554, 1-Benzyl-3-[3-(5-pyridin-3-yl-1H-pyrrolo[2,3-b]pyridine-3-carbonyl)-phenyl]-urea]"
≤ 10,,,,≤ 10,≤ 10,≤ 10,≤ 10,≤ 10,≤ 10,,,≤ 10,,"COCCNC(=O)Nc1cccc(C(=O)c2c[nH]c3ncc(-c4cccnc4)cc23)c1 [Compound P-1566, 1-(2-Methoxy-ethyl)-3-[3-(5-pyridin-3-yl-1H-pyrrolo[2,3-b]pyridine-3-carbonyl)-phenyl]-urea]"
≤ 10,,,,≤ 10,≤ 10,≤ 10,≤ 10,≤ 10,≤ 10,,,≤ 10,,"CCCCNC(=O)Nc1ccc(F)c(C(=O)c2c[nH]c3ncc(OC)cc23)c1F [Compound P-1567, 1-Butyl-3-[2,4-difluoro-3-(5-methoxy-1H-pyrrolo[2,3-b]pyridine-3-carbonyl)-phenyl]-urea]"
≤ 10,,,,≤ 10,≤ 10,≤ 10,≤ 10,≤ 10,,,,≤ 10,,"NC(=O)Nc1ccc(F)c(C(=O)c2c[nH]c3ncc(Br)cc23)c1 [Compound P-1570, [3-(5-Bromo-1H-pyrrolo[2,3-b]pyridine-3-carbonyl)-4-fluoro-phenyl]-urea]"
≤ 10,,,,≤ 10,≤ 10,≤ 10,≤ 10,≤ 10,≤ 10,,,≤ 10,,"CCCCNC(=O)n1ccc2c(C(=O)c3c[nH]c4ncc(-c5ccccc5)cc34)cccc21 [Compound P-1576, 4-(5-Phenyl-1H-pyrrolo[2,3-b]pyridine-3-carbonyl)-indole-1-carboxylic acid butylamide]"
≤ 10,≤ 10,,,≤ 10,≤ 10,≤ 10,≤ 10,≤ 10,,,,≤ 10,,"NC(=O)Nc1ccc(F)c(C(=O)c2c[nH]c3ncc(-c4ccccc4)cc23)c1 [Compound P-1589, [4-Fluoro-3-(5-phenyl-1H-pyrrolo[2,3-b]pyridine-3-carbonyl)-phenyl]-urea]"
≤ 10,≤ 10,,,≤ 10,≤ 10,≤ 10,≤ 10,≤ 10,≤ 10,,,≤ 10,,"O=C(Nc1ccccc1)Nc1cccc(C(=O)c2c[nH]c3ncc(-c4cccnc4)cc23)c1 [Compound P-1591, 1-Phenyl-3-[3-(5-pyridin-3-yl-1H-pyrrolo[2,3-b]pyridine-3-carbonyl)-phenyl]-urea]"
≤ 10,≤ 10,,,≤ 10,≤ 10,≤ 10,≤ 10,≤ 10,,,,≤ 10,,"CCCCNC(=O)Nc1ccc(F)c(C(=O)c2c[nH]c3ncc(-c4cccc(C(N)=O)c4)cc23)c1 [Compound P-1621, 3-{3-[5-(3-Butyl-ureido)-2-fluoro-benzoyl]-1H-pyrrolo[2,3-b]pyridin-5-yl}-benzamide]"
≤ 10,,,,≤ 10,≤ 10,≤ 10,,≤ 10,≤ 10,,,≤ 10,≤ 10,"CCCS(=O)(=O)Nc1ccc(F)c(C(=O)c2c[nH]c3ncc(-c4cnn(C)c4)cc23)c1F [Compound P-1864, Propane-1-sulfonic acid {2,4-difluoro-3-[5-(1-methyl-1H-pyrazol-4-yl)-1H-pyrrolo[2,3-b]pyridine-3-carbonyl]-phenyl}-amide]"
